Reference: patent publication US20260363251A1 (priority 2022, published 2026)
Like-named read-outs stand apart in the source and are kept apart here. Numbered stars: 1 amine (or outer) side, 2 acyl side, 3 side chain; on linkers, the order of the positions; unused ones are H or OH. Bridge positions count the residues as written; N and C are the ends. Square brackets hold non-standard residues; d marks the D form. Peptide text beside a SMILES is read from it. * marks the point of attachment. Tridecanoyl(12-Me) = CC(C)CCCCCCCCCCC(=O)*; X1 = NC(=O)CC(O)C(N[*:1])C(=O)[*:2]; NMeF = CN[CH](Cc1ccccc1)C(=O)O; NMeN = CN[CH](CC(N)=O)C(=O)O; X2 = CCC(C)CCCCCCCCCCC(=O)*

Legend:
[1] = test system: Pyricularia oryzae; type: in vivo; settings: 1 d preventive, 400 L/ha
[2] = test system: Fusarium culmorum; experiment: Seed treatment, soilborne Fusarium culmorum in wheat under semi-field conditions (Example 4.1B); type: in vivo; settings: Celest FS025, 5 g ai per 100 kg seeds; plant emergence vs infected control
[3] = Solubility in water or DMSO
[4] = test system: Aphanomyces cochlioides; experiment: Seed treatment, soilborne Aphanomyces cochlioides in sugar beet in the greenhouse (Example 4.3); type: in vivo, Aphanomyces cochlioides strain K-9164; settings: Tachigaren WS070; damping off vs infected control
[5] = test system: Rhizoctonia solani; experiment: Treatment of sheath blight on rice (Table 11); settings: 1 d preventive, 400 L/ha
[6] = dmso, organic solvent or mixture

Q: For `CCCC1COC(Cn2cncn2)(c2ccc(Cl)cc2Cl)O1` (stereo not drawn) [Propiconazole], which “disease symptom reduction (%) vs. Untreated” value ([1]; 5 g/ha) is on record?
A: 17%

Q: What about the “disease symptom reduction (%) vs. Untreated” value ([1]; 14 g/ha) of the same molecule?
A: 38%

Q: And the “disease symptom reduction (%) vs. Untreated” value ([1]; 42 g/ha)?
A: 79%

Q: And the “disease symptom reduction (%) vs. Untreated” value ([1]; 125 g/ha)?
A: 92%

Q: For `N#Cc1c[nH]cc1-c1cccc2c1OC(F)(F)O2` [Fludioxonil], which “activity (%)” value [2] is on record?
A: 93%

Q: For `CC(=O)NC1C(OCC(OC2OC(CO)C(O)C(O)C2O)C2OC(OC3C(O)C(CO)OC(OC4(CO)OC(C(O)CO)C(O)C4OC4OC(CO)C(O)C(O)C4O)C3O)C(O)C(O)C2OC2OC(C(O)CO)C(O)C(O)C2OC2OCC(OC(N)=O)C(O)C2O)OC(CO)C(O)C1O` (stereo not drawn) [compound I], which solubility [3, 6] is on record?
A: > 9770 µg/mL

Q: Which “activity (%)” value [4] does the source give for `Cc1cc(O)no1` [Hymexazol] here?
A: 74%

Q: Which solubility [3, 6] does the source give for `CCC(C)CCCCCCCCCCC(=O)NC1C(=O)NC(CC(=O)O)C(=O)NC(C(O)CC(N)=O)C(=O)NC(CO)C(=O)N(C)C(CC(N)=O)C(=O)N(C)C(Cc2ccccc2)C(=O)NC(CCC(N)=O)C(=O)NC(CCC(=O)O)C(=O)OC1C` (stereo not drawn) [Formula II (b) Lipopeptide 1218] (X2-TD[X1]S[NMeN][NMeF]QE; ester 1-C; configuration not given here) here?
A: > 10000 µg/mL

Q: Which results are given for `CC(C)CCCCCCCCCCC(=O)NC1C(=O)NC(CC(=O)O)C(=O)NC(C(O)CC(N)=O)C(=O)NC(CO)C(=O)N(C)C(CC(N)=O)C(=O)N(C)C(Cc2ccccc2)C(=O)NC(CCC(N)=O)C(=O)NC(CCC(=O)O)C(=O)OC1C` (stereo not drawn) [Formula II (a) Lipopeptide 1204] ({Tridecanoyl(12-Me)}-TD[X1]S[NMeN][NMeF]QE; ester 1-C; configuration not given here)?
A: solubility [3, 6]: > 10000 µg/mL; solubility ([3]; water, pH 2.08, water): 21.4 µg/mL

Q: For `CO/C=C(/C(=O)OC)c1ccccc1Oc1cc(Oc2ccccc2C#N)ncn1` [Azoxystrobin], which “disease symptom reduction (%) vs. Untreated” value ([5]; 3 g/ha) is on record?
A: 62%

Q: What about the “disease symptom reduction (%) vs. Untreated” value ([5]; 9 g/ha) of the same molecule?
A: 86%

Q: What about the “disease symptom reduction (%) vs. Untreated” value ([5]; 28 g/ha) of the same molecule?
A: 81%

Q: And the “disease symptom reduction (%) vs. Untreated” value ([5]; 83 g/ha)?
A: 86%

Q: What about the “disease symptom reduction (%) vs. Untreated” value ([1]; 3 g/ha) of the same molecule?
A: 92%

Q: What about the “disease symptom reduction (%) vs. Untreated” value ([1]; 9 g/ha) of the same molecule?
A: 85%

Q: What about the “disease symptom reduction (%) vs. Untreated” value ([1]; 28 g/ha) of the same molecule?
A: 96%

Q: And the “disease symptom reduction (%) vs. Untreated” value ([1]; 83 g/ha)?
A: 92%
